# Source: PMC4689404, “2-Benzazolyl-4-Piperazin-1-Ylsulfonylbenzenecarbohydroxamic Acids as Novel Selective Histone Deacetylase-6 Inhibitors with Antiproliferative Activity” (PLoS ONE, 2015)
# Read-outs that look alike come from different tables or passages of the source.
# What was measured:
# HBEC-34KT = test: MTS viability assay; format: cell-based, human; details: Homo sapiens, 96 h, Patient B normal line, 4 days, read-out: Antiproliferative activity IC50, HBEC-34KT
# Experimental: (§1) Lung cancer cells (kindly provided by Dr. John D. Minna, [13, 21]) were maintained in RPMI 1640 media supplemented with 10% FBS. Immortalized normal human bronchial epithelial cells (also provided by Dr. John D. Minna) were cultured in KSFM supplemented with pituitary extract and EGF. For viability assays, cells were plated on 96 well plates and grown overnight. Cells were then exposed to increasing doses of the indicated compounds for 4 days and their viability assayed using the Promega Cell Titer 96 AQueous One kit per the manufacturer’s protocol. All doses were tested in 4–8 replicates. IC50 values were calculated using the in-house software DIVISA.
# HBEC-30KT = test: MTS viability assay; format: cell-based, human; details: Homo sapiens, 96 h, Patient A normal line, 4 days, read-out: Antiproliferative activity IC50, HBEC-30KT
# Experimental: as §1
# [1] = biological target: T1, partially purified HDAC1 from mouse A20 cells (Mus musculus, UniProt O09106); test: HDAC1 activity assay, partially purified enzyme, [3H]acetate-prelabeled histones; format: biochemical
# T1 construct: from mouse A20 cells was used as enzyme source; endogenous in cells; host or cells: mouse A20 cells
# T1 sequence (O09106 whole entry): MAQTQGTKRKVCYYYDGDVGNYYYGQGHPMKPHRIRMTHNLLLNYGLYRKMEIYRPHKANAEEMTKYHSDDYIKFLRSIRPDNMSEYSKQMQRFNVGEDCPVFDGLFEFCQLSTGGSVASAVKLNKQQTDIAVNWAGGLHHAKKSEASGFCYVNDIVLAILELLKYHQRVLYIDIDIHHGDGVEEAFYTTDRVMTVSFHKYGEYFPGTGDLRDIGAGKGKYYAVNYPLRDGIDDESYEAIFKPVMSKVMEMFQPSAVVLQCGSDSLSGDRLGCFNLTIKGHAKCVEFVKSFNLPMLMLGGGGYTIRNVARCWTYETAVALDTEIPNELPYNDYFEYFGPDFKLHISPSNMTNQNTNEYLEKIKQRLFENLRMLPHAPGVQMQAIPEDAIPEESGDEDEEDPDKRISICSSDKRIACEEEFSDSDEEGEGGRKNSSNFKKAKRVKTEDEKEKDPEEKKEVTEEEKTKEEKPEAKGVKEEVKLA
# Excerpt: For inhibition assays, partially purified HDAC1 (70–80 fold enriched relative to crude samples) from mouse A20 cells was used as enzyme source. HDAC1 activity was purified by a combination of anion exchange chromatography (Mono Q), affinity chromatography (Poly-lysin agarose, Heparin Sepharose) and TSK size exclusion chromatography (Jesacher and Loidl, unpublished). HDAC1 protein was identified by immunoblotting using anti mouse HDAC1 antibodies (collaboration with Zymed Laboratories, Inc., San Francisco, California, USA). HDAC activity was determined as described by Sendra et al., [20] using [^3H]acetate-prelabeled chicken reticulocyte histones as substrate. 50 μL of mouse HDAC1 were incubated with different concentrations of compounds for 10 min on ice and 10 μL of total [^3H] acetate pre-labeled chicken reticulocyte histones (4 mg/mL) were added, resulting in a concentration of 41 μM. This mixture was incubated at 37°C for 1 h. The reaction was stopped by addition of 50 μL of 1 M HCl/0.4 M acetylacetate and 1 mL ethylacetate. After centrifugation at 10000 x g for 5 min an aliquot of 600 μL of the upper phase was counted for radioactivity in 3 mL liquid scintillation cocktail.
# recombinant HDAC6 = biological target: T2, recombinant HDAC6 (Homo sapiens, UniProt Q9UBN7); test: comparative HDAC inhibition assay (Millipore fluorometric kit); format: biochemical
# T2 construct: purchased Epigenetek
# T2 sequence (Q9UBN7 1-1215): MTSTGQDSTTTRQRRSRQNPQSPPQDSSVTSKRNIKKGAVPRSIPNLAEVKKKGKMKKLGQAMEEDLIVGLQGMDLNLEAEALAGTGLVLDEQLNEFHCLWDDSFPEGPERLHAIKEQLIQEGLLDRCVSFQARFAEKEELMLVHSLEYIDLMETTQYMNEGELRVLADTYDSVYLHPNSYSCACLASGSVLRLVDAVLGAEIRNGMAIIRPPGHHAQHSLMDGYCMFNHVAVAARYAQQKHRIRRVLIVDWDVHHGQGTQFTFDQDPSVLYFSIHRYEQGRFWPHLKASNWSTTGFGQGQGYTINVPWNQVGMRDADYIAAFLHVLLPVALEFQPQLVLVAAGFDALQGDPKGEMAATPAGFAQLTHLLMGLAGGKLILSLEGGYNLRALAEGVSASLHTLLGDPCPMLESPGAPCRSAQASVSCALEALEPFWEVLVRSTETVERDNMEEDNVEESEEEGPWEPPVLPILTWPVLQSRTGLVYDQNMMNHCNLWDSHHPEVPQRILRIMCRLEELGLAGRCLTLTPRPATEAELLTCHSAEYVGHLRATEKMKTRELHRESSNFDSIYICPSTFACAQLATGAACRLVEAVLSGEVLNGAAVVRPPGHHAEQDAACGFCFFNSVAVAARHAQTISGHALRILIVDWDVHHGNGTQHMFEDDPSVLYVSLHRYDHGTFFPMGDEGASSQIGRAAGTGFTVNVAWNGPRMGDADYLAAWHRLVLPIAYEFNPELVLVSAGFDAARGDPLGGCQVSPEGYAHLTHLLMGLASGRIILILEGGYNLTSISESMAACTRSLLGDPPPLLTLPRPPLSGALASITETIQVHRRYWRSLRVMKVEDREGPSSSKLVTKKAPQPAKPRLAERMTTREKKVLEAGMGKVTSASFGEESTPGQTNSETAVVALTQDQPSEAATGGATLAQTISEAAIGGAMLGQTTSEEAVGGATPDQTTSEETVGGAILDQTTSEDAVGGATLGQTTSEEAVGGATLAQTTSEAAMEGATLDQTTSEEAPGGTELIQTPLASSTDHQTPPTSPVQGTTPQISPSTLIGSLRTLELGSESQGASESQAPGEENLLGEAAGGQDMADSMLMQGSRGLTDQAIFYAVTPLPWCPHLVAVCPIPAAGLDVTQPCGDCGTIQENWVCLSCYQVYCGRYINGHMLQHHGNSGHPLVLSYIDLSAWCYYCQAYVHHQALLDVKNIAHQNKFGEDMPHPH
# Experimental: (§2) For the direct comparison of HDAC1 vs. HDAC6 inhibition, HDAC activity was analyzed using the HDAC Assay Kit from Millipore (17–356). Briefly, recombinant HDAC1 or recombinant HDAC6 (both purchased from Epigenetek, Purity of HDAC1 is more than 60% and purity HDAC6 is more than 85%). was incubated with the fluorometric HDAC substrate according to the manufacturer’s protocol in the presence of DMSO vehicle or increase compound doses. In a secondary activator reaction, the fluorophore is only cleaved from the deacetylated substrate, allowing for quantification. Fluorescence was quantified on a FLUOstar-Optima or a FLUOstar Omega plate reader (BMG Biosciences).
# recombinant HDAC1 = biological target: T3, recombinant HDAC1 (Homo sapiens, UniProt Q13547); test: as above; format: biochemical; details: recombinant HDAC1, fluorometric substrate; Table 4
# T3 construct: purchased Epigenetek
# T3 sequence (Q13547 whole entry): as the sequence (O09106 whole entry) above, with K8R, E399D, D424E counted along it
# Experimental: as §2
# [2] = test system: epigenetically silenced GFP transgene in LDR cells; test: locus derepression (LDR) assay, GFP induction; format: cell-based
# Experimental: LDR cells were maintained in DMEM with L-glutamine and high glucose, 1 mM sodium pyruvate, 0.1 mM MEM non-essential amino acids, 1% v/v penicillin-streptomycin and 10% heat inactivated FBS. Cells were seeded on glass bottom chambers at low-medium density and allowed to attach overnight. Compounds were then added for 24h at the indicated dose and cells were imaged under a fluorescent microscope equipped with a camera using a 20 or 40X objective. All images shown were exposed for identical time.
# [3] = Table 3, partially purified HDAC1, read-out: HDAC1 IC50
# [4] = Table 3, read-out: HDAC6 pIC50 (converted)
# [5] = recombinant HDAC6, fluorometric substrate, Table 4, read-out: HDAC6 IC50
"IC50 [1, 3]","IC50 ([1]; partially purified HDAC1 from mouse A20 cells, Fig 4 and text, read-out: HDAC1 Inhibit (IC50))",IC50 (recombinant HDAC6; [4]),Selectivity Index HDAC1/HDAC6 (recombinant HDAC6; Table 4),IC50 (recombinant HDAC6; [5]),IC50 (recombinant HDAC1),Structure (SMILES),IC50 (HBEC-34KT),IC50 (HBEC-30KT),"activation of the silenced GFP gene (GFP expression) ([2]; compound at 20μM, fluorescence microscopy)",GFP induction / activity in the LDR assay [2]
12.4 µM,~12 µM,100 nM,28.4,130 ± 70 nM,3700 ± 1700 nM,"Cn1c(N2CCN(S(=O)(=O)c3ccc(C(=O)NO)cc3)CC2)nc2ccccc21 [Compound 9b, 4-[4-(1-methylbenzimidazol-2-yl)piperazin-1-yl]sulfonylbenzenecarbohydroxamic acid]",> 10 µM,> 10 µM,robust GFP expression,–
5.7 µM,–,200 nM,4.3,220 ± 40 nM,920 ± 160 nM,"O=C(NO)c1ccc(S(=O)(=O)N2CCN(c3nc4ccccc4o3)CC2)cc1 [Compound 9c, 4-(4-Benzoxazol-2-yl-piperazin-1-sulfonyl)-N -hydroxy-benzamid]",> 10 µM,> 10 µM,–,high level of GFP induction
4.8 µM,–,100 nM,–,130 ± 20 nM,900 ± 450 nM,"O=C(NO)c1ccc(S(=O)(=O)N2CCN(c3nc4ccccc4s3)CC2)cc1 [Compound 9d, 4-(4-Benzothiazol-2-yl-piperazin-1-sulfonyl)-N -hydroxy-benzamid]",8.22 µM,5.37 µM,–,high level of GFP induction
